Drawing on PubChem BioAssay (NCI), this text covers TGI and GI50 for nine compounds.

Holding throughout (test): growth of human tumour cells (NCI), 48 h
Experiment [1] relates to SF-539 CNS.
Experiment [2] relates to SN12C renal.
For experiment [3], the system named is A498 renal.
In experiment [4] the test system is HOP-92 NSCLC.
Experiment [5] deals with DU-145 prostate.
The test system of experiment [6] is HCT-15 colon.
Experiment [7] deals with COLO 205 colon.
Experiment [8] relates to A549 NSCLC.
In experiment [9] the test system is SK-MEL-5 melanoma.
The test system of experiment [10] is NCI/ADR-RES ovarian.

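Growth conditions: 96-well plates. Treatment: test compound, 48 hours, 5 concentrations. Analysis: linear interpolation between bracketing concentrations; unreached endpoints set to highest concentration. At the GI50, growth is halved. The concentration for full growth arrest is given as TGI.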

Turning to `C[Si](C)(c1ccc(C(=O)O)cc1)c1ccc(C(=O)O)cc1`, the TGI in experiment [1], in experiment [2], in experiment [3], in experiment [4], in [5] and in experiment [6] was over 100 µM each time. In addition, the TGI in [7], in [8], in experiment [9] and in [10] was over 100 µM in each case.

As for `CSc1ncc(Br)c(Sc2nc(N)nc3nc[nH]c23)n1`, the GI50 in [1] is 3.2 µM; in experiment [2], 3.8 µM; in experiment [3], 3.62 µM; in experiment [4] it was 0.456 µM; in experiment [5], 1.44 µM; in experiment [6], 3.18 µM. The GI50 in experiment [7] is 3.09 µM; in experiment [8], 9.77 µM; in experiment [9], 3.12 µM; in experiment [10] it was 3.64 µM. In addition, the TGI was 15 µM in experiment [1]; 36.5 µM in experiment [2]; 29 µM in experiment [3]; 5.23 µM in experiment [4]; 23.9 µM in experiment [5]; 50.8 µM in experiment [6]. The TGI is 9.17 µM in [7], 71.1 µM in experiment [8], 36.1 µM in [9] and over 100 µM in [10].

Turning to `COc1ccc(C(=O)c2cc3c(N)c(C(=O)Nc4ccccc4)sc3nc2C)cc1`, the GI50 in [1] is 0.598 µM; in experiment [2], 1.68 µM; in experiment [3], 0.184 µM; in experiment [4], 86.3 µM; in [5], 2.21 µM; in experiment [6] it was 0.426 µM. Besides, the GI50 in [7] was 1.42 µM; in experiment [8], 0.638 µM; in [9] it was 0.459 µM; in experiment [10], 0.816 µM. Further, the TGI in [1] is 4.57 µM; in experiment [2], over 100 µM; in experiment [3], 0.645 µM; in experiment [4] it was over 100 µM; in experiment [5], over 100 µM; in [6], over 100 µM. Further, the TGI in [7] was over 100 µM; in [8], over 100 µM; in [9], 10.6 µM; in experiment [10] it was over 100 µM.

As to `CCOc1ccc2c(c1)C(=O)c1c-2n(CCCBr)c(=O)c2cc([N+](=O)[O-])ccc12`, the GI50 in experiment [1] is 5.57 µM; in [2], 11.9 µM; in experiment [3] it was 36 µM; in [4], 37.1 µM; in [5], 4.29 µM; in [6] it was 36 µM. The GI50 is 41.3 µM in [7], 29 µM in experiment [8], 8.74 µM in experiment [9] and 9.06 µM in experiment [10]. For the same compound, the TGI in experiment [1] is 40.9 µM; in experiment [2], over 100 µM; in experiment [3], over 100 µM; in experiment [4], over 100 µM; in [5] it was over 100 µM; in experiment [6] it was over 100 µM. Besides, the TGI in [7] was over 100 µM; in [8], over 100 µM; in [9] it was 25.7 µM; in experiment [10], over 100 µM.

With `O=C(O)/C=C\C(=O)Nc1ccccn1`, the TGI in [1], in experiment [2], in experiment [3], in experiment [4], in experiment [5] and in [6] was over 100 µM each time. Moreover, the TGI in experiment [7], in [8], in experiment [9] and in experiment [10] was over 100 µM throughout.

In the case of `Cc1cc(Nc2nc(C(=O)Nc3ccccc3)nc3ccccc23)n[nH]1`, the GI50 in experiment [1] was over 25 µM; in experiment [2] it was 10.3 µM; in [3], 1.05 µM; in [4] it was 0.399 µM; in experiment [5], 9.08 µM; in experiment [6], 1.39 µM. Also, the GI50 in experiment [7] is 14.4 µM; in experiment [8], 13.9 µM; in experiment [9], 22.5 µM; in experiment [10], 0.916 µM. The TGI in experiment [1], in [2], in [3], in [4], in experiment [5] and in experiment [6] was over 25 µM each time. Also, the TGI in experiment [7], in experiment [8], in experiment [9] and in experiment [10] was over 25 µM each time.

In the case of `CN(C)c1ccc(/C=C2\N=C(c3ccccc3)N(c3cc(C(F)(F)F)ccc3Cl)C2=O)cc1`, the GI50 was over 100 µM in experiment [1]; over 100 µM in [2]; over 100 µM in experiment [3]; over 87.1 µM in [4]; over 100 µM in experiment [5]; over 100 µM in [6]. In addition, the GI50 in experiment [7], in [8], in experiment [9] and in experiment [10] was over 100 µM throughout. Further, the TGI in [1], in experiment [2], in experiment [3], in [4], in experiment [5] and in experiment [6] was over 100 µM each time. For the same compound, the TGI in experiment [7], in experiment [8], in [9] and in experiment [10] was over 100 µM throughout.

Consider `O=[N+]([O-])c1nccn1CC(O)CN1CCCCC1` (stereo not given), for which the TGI in experiment [1], in [2], in experiment [3], in experiment [4], in experiment [5] and in experiment [6] was over 100 µM throughout. For the same compound, the TGI in [7], in experiment [8], in experiment [9] and in experiment [10] was over 100 µM throughout.

Consider `COC(=O)C(CCC(=O)CCl)N1C(=O)c2ccccc2C1=O` (stereo not given), for which the TGI in experiment [1] is 22 µM; in experiment [2], 23.8 µM; in experiment [3], 36.6 µM; in experiment [4] it was 12.1 µM; in experiment [5], 26.9 µM; in [6], 15.8 µM. Also, the TGI turned out to be 40.3 µM in experiment [7], 35.3 µM in experiment [8], 16.1 µM in experiment [9] and 29.7 µM in experiment [10].
